# Experimental data from ChEMBL document CHEMBL1909046, “DrugMatrix in vitro pharmacology data”.
# Where a SMILES comes first, the peptide text is derived from it. Bridges are numbered along the chain shown (N, C = ends). [ ]: non-standard residue; d: D form. The star is where a group is joined. Threoninol(2S,3R) = C[C@@H](O)[C@H](CO)N*
# Tests used:
# Carbonic anhydrase 2 = Carbonic anhydrase 2 (Homo sapiens, UniProt P00918); test: DRUGMATRIX: Carbonic Anhydrase II enzyme inhibition (substrate: 4-Nitrophenyl acetate (4-NPA)); assay type: tissue-based, Erythrocyte; details: erythrocyte; Not Active = under 50% inhibition at 10 µM
# [1] = biological target: Sodium-dependent dopamine transporter (Homo sapiens, UniProt Q01959); test: DRUGMATRIX: Dopamine Transporter radioligand binding (ligand: [125I] RTI-55); assay type: cell membranes, CHO-K1, Membrane; details: Not Active = under 50% inhibition at 10 µM
# [2] = biological target: T1, Neuropeptide Y receptor type 1 (Homo sapiens, UniProt P25929); assay type: cell membranes, Membrane; details: sk-n-mc; note: in other assays of this panel Not Active means under 50% inhibition at 10 µM
# T1 sequence (P25929 whole entry): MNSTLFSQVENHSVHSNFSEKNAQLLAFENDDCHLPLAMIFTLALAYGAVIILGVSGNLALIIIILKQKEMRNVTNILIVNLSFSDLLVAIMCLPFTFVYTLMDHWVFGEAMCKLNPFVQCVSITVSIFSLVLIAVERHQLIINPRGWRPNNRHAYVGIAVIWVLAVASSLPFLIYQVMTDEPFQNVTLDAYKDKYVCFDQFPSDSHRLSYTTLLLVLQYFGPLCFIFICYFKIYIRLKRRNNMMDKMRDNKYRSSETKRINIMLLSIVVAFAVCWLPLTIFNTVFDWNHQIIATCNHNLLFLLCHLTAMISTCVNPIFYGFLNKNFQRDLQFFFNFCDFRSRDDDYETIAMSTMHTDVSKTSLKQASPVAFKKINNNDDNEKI
# [3] = DRUGMATRIX: Phorbol Ester radioligand binding (ligand: [3H] PDBu); assay type: cell membranes, Mus musculus, ICR, Brain, Membrane; details: Not Active = under 50% inhibition at 10 µM
# Neutrophil elastase = biological target: T2, Neutrophil elastase (Homo sapiens, UniProt P08246); assay type: tissue-based;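 note: inhibition of neutrophil elastase enzyme activity, measured with a p-nitroanilide-linked peptide substrate; in other assays of this panel Not Active means under 50% inhibition at 10 µM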
# T2 sequence (P08246 whole entry): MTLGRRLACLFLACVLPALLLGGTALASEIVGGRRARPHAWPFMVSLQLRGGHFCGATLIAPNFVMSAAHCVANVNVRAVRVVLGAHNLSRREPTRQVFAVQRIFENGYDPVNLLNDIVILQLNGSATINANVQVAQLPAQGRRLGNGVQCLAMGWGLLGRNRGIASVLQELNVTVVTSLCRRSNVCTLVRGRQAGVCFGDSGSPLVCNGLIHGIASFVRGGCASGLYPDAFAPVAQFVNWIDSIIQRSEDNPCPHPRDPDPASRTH
# [4] = biological target: Tyrosine-protein kinase Fyn (Homo sapiens, UniProt P06241); test: biochemical; assay type: cell-based, Insect cells; details: insect cells;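 note: enzymatic inhibition of Fyn kinase activity measured with Poly(Glu:Tyr) as the phosphorylation substrate; in other assays of this panel Not Active means under 50% inhibition at 10 µM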
# [5] = biological target: Receptor tyrosine-protein kinase erbB-2 (Homo sapiens, UniProt P04626); test: biochemical; assay type: cell-based, Insect cells; details: insect cells;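 note: inhibition of HER2 kinase enzyme activity, measured with Poly(Glu:Tyr) as the phosphorylation substrate; in other assays of this panel Not Active means under 50% inhibition at 10 µM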
# Receptor tyrosine-protein kinase erbB-2, sequence (P04626 whole entry): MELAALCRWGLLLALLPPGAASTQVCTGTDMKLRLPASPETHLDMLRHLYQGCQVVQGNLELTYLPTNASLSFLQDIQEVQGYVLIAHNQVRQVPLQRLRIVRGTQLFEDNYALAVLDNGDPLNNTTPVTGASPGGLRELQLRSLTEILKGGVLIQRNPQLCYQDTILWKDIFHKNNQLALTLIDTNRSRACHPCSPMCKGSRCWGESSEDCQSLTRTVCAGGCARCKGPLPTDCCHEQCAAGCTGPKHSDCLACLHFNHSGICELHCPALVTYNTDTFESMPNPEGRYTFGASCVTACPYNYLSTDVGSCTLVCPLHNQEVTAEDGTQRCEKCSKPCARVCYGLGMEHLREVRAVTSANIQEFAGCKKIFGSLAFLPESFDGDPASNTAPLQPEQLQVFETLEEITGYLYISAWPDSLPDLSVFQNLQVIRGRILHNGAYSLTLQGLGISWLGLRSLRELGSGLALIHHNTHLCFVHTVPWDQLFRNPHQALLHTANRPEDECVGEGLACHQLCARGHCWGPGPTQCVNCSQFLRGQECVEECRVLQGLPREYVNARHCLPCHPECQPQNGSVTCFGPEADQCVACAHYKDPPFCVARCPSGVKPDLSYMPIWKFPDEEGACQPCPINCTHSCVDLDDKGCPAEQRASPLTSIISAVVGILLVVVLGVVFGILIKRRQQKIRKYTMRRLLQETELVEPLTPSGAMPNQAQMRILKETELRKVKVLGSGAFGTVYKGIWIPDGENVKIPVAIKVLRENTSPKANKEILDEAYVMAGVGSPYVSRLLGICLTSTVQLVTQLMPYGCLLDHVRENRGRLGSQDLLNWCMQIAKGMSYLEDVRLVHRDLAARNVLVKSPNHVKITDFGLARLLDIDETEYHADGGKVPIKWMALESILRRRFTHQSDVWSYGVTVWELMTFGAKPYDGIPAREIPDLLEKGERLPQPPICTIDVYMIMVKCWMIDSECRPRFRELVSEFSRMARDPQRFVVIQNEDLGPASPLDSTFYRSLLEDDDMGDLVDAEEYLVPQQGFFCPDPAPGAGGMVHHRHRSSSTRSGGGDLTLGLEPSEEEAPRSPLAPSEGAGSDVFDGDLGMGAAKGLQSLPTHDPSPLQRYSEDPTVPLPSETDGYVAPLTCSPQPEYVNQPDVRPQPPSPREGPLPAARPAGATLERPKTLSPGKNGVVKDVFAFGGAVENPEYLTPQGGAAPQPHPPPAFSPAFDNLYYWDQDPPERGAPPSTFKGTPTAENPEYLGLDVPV
# Sodium-dependent dopamine transporter, sequence (Q01959 whole entry): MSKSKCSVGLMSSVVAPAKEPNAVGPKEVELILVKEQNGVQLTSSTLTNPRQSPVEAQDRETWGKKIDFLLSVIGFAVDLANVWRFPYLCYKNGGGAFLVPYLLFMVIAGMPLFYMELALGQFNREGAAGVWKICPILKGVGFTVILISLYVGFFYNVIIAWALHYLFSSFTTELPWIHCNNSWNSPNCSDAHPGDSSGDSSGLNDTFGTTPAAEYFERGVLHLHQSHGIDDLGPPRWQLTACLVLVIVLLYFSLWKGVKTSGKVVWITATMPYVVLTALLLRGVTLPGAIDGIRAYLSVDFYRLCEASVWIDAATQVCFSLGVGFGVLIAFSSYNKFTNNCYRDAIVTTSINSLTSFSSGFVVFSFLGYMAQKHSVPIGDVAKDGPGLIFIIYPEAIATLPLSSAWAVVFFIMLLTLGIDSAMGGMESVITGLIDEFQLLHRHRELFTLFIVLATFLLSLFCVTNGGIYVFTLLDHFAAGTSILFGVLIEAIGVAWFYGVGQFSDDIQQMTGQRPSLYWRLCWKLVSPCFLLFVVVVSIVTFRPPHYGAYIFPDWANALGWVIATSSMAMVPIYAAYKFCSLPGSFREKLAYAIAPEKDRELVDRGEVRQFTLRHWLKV
# Tyrosine-protein kinase Fyn, sequence (P06241 whole entry): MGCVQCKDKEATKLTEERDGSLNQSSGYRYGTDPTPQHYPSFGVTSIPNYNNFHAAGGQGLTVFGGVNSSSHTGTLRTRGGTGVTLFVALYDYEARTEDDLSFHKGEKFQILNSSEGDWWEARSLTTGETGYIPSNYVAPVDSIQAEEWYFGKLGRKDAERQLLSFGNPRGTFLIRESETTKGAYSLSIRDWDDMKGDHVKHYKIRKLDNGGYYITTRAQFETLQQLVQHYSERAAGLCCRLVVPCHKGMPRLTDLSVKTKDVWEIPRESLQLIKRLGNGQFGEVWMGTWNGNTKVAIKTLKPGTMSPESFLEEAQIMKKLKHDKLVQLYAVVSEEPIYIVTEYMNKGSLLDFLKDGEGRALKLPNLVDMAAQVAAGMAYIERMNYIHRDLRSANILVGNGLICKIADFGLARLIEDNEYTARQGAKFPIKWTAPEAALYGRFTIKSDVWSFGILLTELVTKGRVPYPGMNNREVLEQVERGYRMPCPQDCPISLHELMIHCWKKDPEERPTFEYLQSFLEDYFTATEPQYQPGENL
SMILES,IC50 (Carbonic anhydrase 2),IC50 ([1]; cho-k1),IC50 [2],IC50 [3],Ki [3],IC50 (Neutrophil elastase),IC50 [4],IC50 [5],IC50 ([1]; read-out: IC50) [µM],Ki ([1]; read-out: Ki) [µM],Ki (Carbonic anhydrase 2),Ki ([1]; cho-k1),Ki [2],Ki (Neutrophil elastase),Ki [4],Ki [5]
CCN(CC)CCOC(=O)c1ccc(N)cc1 [PROCAINE],Not Active,Not Active,Not Active,Not Active,Not Active,Not Active,Not Active,Not Active,,,,,,,,
O=C(O)Cc1ccccc1Nc1c(Cl)cccc1Cl [DICLOFENAC],Not Active,Not Active,Not Active,Not Active,Not Active,Not Active,Not Active,Not Active,,,,,,,,
CC(C)[C@H]1CC[C@H](C(=O)N[C@H](Cc2ccccc2)C(=O)O)CC1 [NATEGLINIDE],Not Active,Not Active,Not Active,Not Active,Not Active,Not Active,Not Active,Not Active,,,,,,,,
Nc1c(CC(=O)O)cccc1C(=O)c1ccc(Br)cc1 [BROMFENAC],Not Active,Not Active,Not Active,Not Active,Not Active,Not Active,Not Active,Not Active,,,,,,,,
CC(=O)Nc1cccc(O)c1 [METACETAMOL],Not Active,Not Active,Not Active,Not Active,Not Active,Not Active,Not Active,Not Active,,,,,,,,
CCn1cc(C(=O)O)c(=O)c2cc(F)c(N3CCN(C)CC3)cc21 [PEFLOXACIN],Not Active,Not Active,Not Active,Not Active,Not Active,Not Active,Not Active,Not Active,,,,,,,,
COc1ccc2c(c1)c(CC(=O)O)c(C)n2C(=O)c1ccc(Cl)cc1 [INDOMETHACIN],Not Active,Not Active,Not Active,Not Active,Not Active,Not Active,Not Active,Not Active,,,,,,,,
C[C@H]1O[C@@H](O[C@H]2[C@@H](O)C[C@H](O[C@H]3[C@@H](O)C[C@H](O[C@H]4CC[C@@]5(C)[C@H](CC[C@@H]6[C@@H]5CC[C@]5(C)[C@@H](C7=CC(=O)OC7)CC[C@]65O)C4)O[C@@H]3C)O[C@@H]2C)C[C@H](O)[C@@H]1O [DIGITOXIN],Not Active,Not Active,Not Active,Not Active,Not Active,Not Active,Not Active,Not Active,,,,,,,,
S=C=Nc1cccc2ccccc12 [1-NAPHTHYLISOTHIOCYANATE],Not Active,Not Active,Not Active,Not Active,Not Active,Not Active,Not Active,Not Active,,,,,,,,
C[C@]12CC[C@@H]3c4ccc(O)cc4CC[C@H]3[C@@H]1CC[C@@H]2O [ESTRADIOL],Not Active,,Not Active,Not Active,Not Active,Not Active,Not Active,Not Active,14.9,11.8,,,,,,
CCOC(=O)C1=C(C)NC(C)=C(C(=O)OC)C1c1cccc([N+](=O)[O-])c1 (stereo unspecified) [NITRENDIPINE],Not Active,Not Active,Not Active,Not Active,Not Active,Not Active,Not Active,Not Active,,,,,,,,
CC1=C(C(=O)O)N2C(=O)[C@@H](NC(=O)[C@H](N)c3ccccc3)[C@H]2SC1 [CEPHALEXIN ANHYDROUS],Not Active,Not Active,Not Active,Not Active,Not Active,Not Active,Not Active,Not Active,,,,,,,,
CN(C)/N=N/c1[nH]cnc1C(N)=O [DACARBAZINE],Not Active,Not Active,Not Active,Not Active,Not Active,Not Active,Not Active,Not Active,,,,,,,,
COc1ccc2c(c1)[C@]13CCCC[C@@H]1[C@H](C2)N(C)CC3 [DEXTROMETHORPHAN],Not Active,Not Active,Not Active,Not Active,Not Active,Not Active,Not Active,Not Active,,,,,,,,
COc1ccccc1C(=O)N1CCC(Cc2ccccc2)CC1,Not Active,Not Active,Not Active,Not Active,Not Active,Not Active,Not Active,Not Active,,,,,,,,
C=C1CC[C@H](O)C/C1=C/C=C1\CCC[C@]2(C)[C@@H]([C@H](C)CCCC(C)C)CC[C@@H]12 [CHOLECALCIFEROL],Not Active,Not Active,Not Active,Not Active,Not Active,Not Active,Not Active,Not Active,,,,,,,,
COc1cc2c(c3oc(=O)c4c(c13)CCC4=O)[C@@H]1C=CO[C@@H]1O2 [AFLATOXIN],Not Active,Not Active,Not Active,Not Active,Not Active,Not Active,Not Active,Not Active,,,Not Active,Not Active,Not Active,Not Active,Not Active,Not Active
COc1ccc2cc([C@H](C)C(=O)O)ccc2c1 [NAPROXEN],Not Active,Not Active,Not Active,Not Active,Not Active,Not Active,Not Active,Not Active,,,,,,,,
CC(C)Cc1ccc(C(C)C(=O)O)cc1 (stereo unspecified) [IBUPROFEN],Not Active,Not Active,Not Active,Not Active,Not Active,Not Active,Not Active,Not Active,,,,,,,,
CC(C)(C(=O)c1cccnc1)c1cccnc1 [METYRAPONE],Not Active,Not Active,Not Active,Not Active,Not Active,Not Active,Not Active,Not Active,,,,,,,,
Cc1ncc([N+](=O)[O-])n1CCO [METRONIDAZOLE],Not Active,Not Active,Not Active,Not Active,Not Active,Not Active,Not Active,Not Active,,,,,,,,
"C[C@@H](O)[C@H](CO)NC(=O)[C@@H]1CSSC[C@H](NC(=O)[C@H](N)Cc2ccccc2)C(=O)N[C@@H](Cc2ccccc2)C(=O)N[C@H](Cc2c[nH]c3ccccc23)C(=O)N[C@@H](CCCCN)C(=O)N[C@@H]([C@@H](C)O)C(=O)N1 (H-[dF]CF[dW]KTC-{Threoninol(2S,3R)}; disulfide 2-7)",Not Active,Not Active,Not Active,Not Active,Not Active,Not Active,Not Active,Not Active,,,,,,,,
COc1ccc2[nH]c([S+]([O-])Cc3ncc(C)c(OC)c3C)nc2c1 (stereo unspecified) [OMEPRAZOLE],Not Active,Not Active,Not Active,Not Active,Not Active,Not Active,Not Active,Not Active,,,,,,,,
